This is an account of results in US20250163104A1, “MACROCYCLIC IMMUNOMODULATORS” (priority 2021, published 2025).

pIC50: −log10 of the molar value. Where a SMILES comes first, the peptide text is derived from it. Bridges are numbered along the chain shown (N, C = ends). [ ]: non-standard residue; d: D form. The star is where a group is joined. Bip = N[C@@H](Cc1ccc(-c2ccccc2)cc1)C(=O)O; 4Pal = N[C@@H](Cc1ccncc1)C(=O)O; 2Thi = N[C@@H](Cc1cccs1)C(=O)O; Cha = N[C@@H](CC1CCCCC1)C(=O)O; Carboxymethyl = O=C(O)C*; Orn = NCCC[C@H](N)C(=O)O; Dab = NCC[C@H](N)C(=O)O; Dap = NC[C@H](N)C(=O)O

The target in this assay is T1, human PD-1 / PD-L1-Ig binding on Jurkat cell line over-expressing human PD-1 (Jurkat-PD-1) (Homo sapiens, UniProt Q15116).
T1 construct: expressed in transfected cells; host or cells: Jurkat
T1 sequence (Q15116 25-288): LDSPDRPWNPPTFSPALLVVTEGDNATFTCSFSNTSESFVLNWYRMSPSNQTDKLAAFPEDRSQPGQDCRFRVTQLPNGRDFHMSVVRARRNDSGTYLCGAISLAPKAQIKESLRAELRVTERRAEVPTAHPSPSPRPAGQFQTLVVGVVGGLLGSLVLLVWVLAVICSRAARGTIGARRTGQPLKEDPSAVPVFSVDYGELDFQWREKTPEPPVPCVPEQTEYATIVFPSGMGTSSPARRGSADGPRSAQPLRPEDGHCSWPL
Put plainly: Jurkat-PD-1 Cell Binding High-Content Screening Assay (CBA). The class given is cell-based. The following applies: Jurkat-PD-1 cells, PE-labeled PD-L1-Ig 20 nM final; read-out: Jurkat HPD1_PDL1 IC50. The essentials:
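Binding of fluorescent PD-L1-Ig (phycoerythrin linked via the Ig tag, 20 nM final) to PD-1-overexpressing Jurkat cells was imaged after a 2 h, 37° C compound pretreatment and 1 hour ligand incubation.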
On to `CC(C)C[C@H]1NC(=O)[C@H](CCCN)NC(=O)[C@H](CCC(=O)O)NC(=O)[C@H](Cc2ccc(-c3ccccc3)cc2)NC(=O)[C@H](C(C)C)NC(=O)[C@H](Cc2c[nH]c3ccccc23)NC(=O)[C@H](CC(=O)O)NC(=O)[C@H](Cc2ccc(C#N)cc2)NC(=O)[C@H](Cc2ccc(OCC(=O)O)cc2)NC(=O)CSC[C@@H](C(=O)N[C@@H](C)C(N)=O)NC(=O)[C@H]([C@@H](C)O)NC(=O)[C@H](C(C)C)NC(=O)[C@H](CC2CCCCC2)NC(=O)[C@H](CCN)NC1=O` [Compound 2188], for which the pIC50 was 7.62.

Regarding `CC(C)C[C@H]1NC(=O)[C@H](CCCN)NC(=O)[C@H](CCC(=O)O)NC(=O)[C@H](Cc2ccc(-c3ccccc3)cc2)NC(=O)[C@H](C(C)C)NC(=O)[C@H](Cc2c[nH]c3ccccc23)NC(=O)[C@H](CC(=O)O)NC(=O)[C@H](Cc2ccc(C#N)cc2)NC(=O)[C@H](Cc2ccncc2)NC(=O)CSC[C@@H](C(=O)N[C@@H](C)C(N)=O)NC(=O)[C@H]([C@@H](C)O)NC(=O)[C@H](C(C)C)NC(=O)[C@H](CC2CCCCC2)NC(=O)[C@H](CCN)NC1=O` [Compound 2189], the pIC50 was 7.49.

In the case of `CC(C)C[C@H]1NC(=O)[C@H](CCCN)NC(=O)[C@H](CCC(=O)O)NC(=O)[C@H](Cc2ccc(-c3ccccc3)cc2)NC(=O)[C@H](C(C)C)NC(=O)[C@H](Cc2c[nH]c3ccccc23)NC(=O)[C@H](CC(=O)O)NC(=O)[C@H](Cc2cccs2)NC(=O)[C@H](CC(N)=O)NC(=O)CSC[C@@H](C(=O)N[C@@H](C)C(N)=O)NC(=O)[C@H]([C@@H](C)O)NC(=O)[C@H](C(C)C)NC(=O)[C@H](CC2CCCCC2)NC(=O)[C@H](CCN)NC1=O` [Compound 2190] ({CH2CO}-N[2Thi]DWV[Bip]E[Orn][dL][Dab][Cha]VTCA-NH2; thioether N-14), the pIC50 was 7.82.

In the case of `CC(C)C[C@H]1NC(=O)[C@H](CCCN)NC(=O)[C@H](CCC(=O)O)NC(=O)[C@H](Cc2ccc(-c3ccccc3)cc2)NC(=O)[C@H](C(C)C)NC(=O)[C@H](Cc2c[nH]c3ccccc23)NC(=O)[C@H](CC(=O)O)NC(=O)[C@H](Cc2cccs2)NC(=O)[C@H](Cc2ccccc2)NC(=O)CSC[C@@H](C(=O)N[C@@H](C)C(N)=O)NC(=O)[C@H]([C@@H](C)O)NC(=O)[C@H](C(C)C)NC(=O)[C@H](CC2CCCCC2)NC(=O)[C@H](CCN)NC1=O` [Compound 2191] ({CH2CO}-F[2Thi]DWV[Bip]E[Orn][dL][Dab][Cha]VTCA-NH2; thioether N-14), the pIC50 is 7.23.

As for `CC(C)C[C@H]1NC(=O)[C@H](CCCN)NC(=O)[C@H](CCC(=O)O)NC(=O)[C@H](Cc2ccc(-c3ccccc3)cc2)NC(=O)[C@H](C(C)C)NC(=O)[C@H](Cc2c[nH]c3ccccc23)NC(=O)[C@H](CC(=O)O)NC(=O)[C@H](Cc2cccs2)NC(=O)[C@H](CN)NC(=O)CSC[C@@H](C(=O)N[C@@H](C)C(N)=O)NC(=O)[C@H]([C@@H](C)O)NC(=O)[C@H](C(C)C)NC(=O)[C@H](CC2CCCCC2)NC(=O)[C@H](CCN)NC1=O` [Compound 2192] ({CH2CO}-[Dap][2Thi]DWV[Bip]E[Orn][dL][Dab][Cha]VTCA-NH2; thioether N-14), the pIC50 is 7.74.

Take `CC(C)C[C@H]1NC(=O)[C@H](CCCN)NC(=O)[C@H](CCC(=O)O)NC(=O)[C@H](Cc2ccc(-c3ccccc3)cc2)NC(=O)[C@H](C(C)C)NC(=O)[C@H](Cc2c[nH]c3ccccc23)NC(=O)[C@H](CC(=O)O)NC(=O)[C@H](Cc2cccs2)NC(=O)[C@H](Cc2ccc(OCC(=O)O)cc2)NC(=O)CSC[C@@H](C(=O)N[C@@H](C)C(N)=O)NC(=O)[C@H]([C@@H](C)O)NC(=O)[C@H](C(C)C)NC(=O)[C@H](CC2CCCCC2)NC(=O)[C@H](CCN)NC1=O` [Compound 2193]: the pIC50 is 7.63.

With `CC(C)C[C@H]1NC(=O)[C@H](CCCN)NC(=O)[C@H](CCC(=O)O)NC(=O)[C@H](Cc2ccc(-c3ccccc3)cc2)NC(=O)[C@H](C(C)C)NC(=O)[C@H](Cc2c[nH]c3ccccc23)NC(=O)[C@H](CC(=O)O)NC(=O)[C@H](Cc2cccs2)NC(=O)[C@H](Cc2ccncc2)NC(=O)CSC[C@@H](C(=O)N[C@@H](C)C(N)=O)NC(=O)[C@H]([C@@H](C)O)NC(=O)[C@H](C(C)C)NC(=O)[C@H](CC2CCCCC2)NC(=O)[C@H](CCN)NC1=O` [Compound 2194] ({CH2CO}-[4Pal][2Thi]DWV[Bip]E[Orn][dL][Dab][Cha]VTCA-NH2; thioether N-14), the negative-log IC50 (pIC50) was 7.78.

Consider `CC(C)C[C@H]1NC(=O)[C@H](CCCN)NC(=O)[C@H](CCC(=O)O)NC(=O)[C@H](Cc2ccc(-c3ccccc3)cc2)NC(=O)[C@H](C(C)C)NC(=O)[C@H](Cc2c[nH]c3ccccc23)NC(=O)[C@H](CC(=O)O)NC(=O)[C@H](Cc2ccncc2)NC(=O)[C@H](CC(N)=O)NC(=O)CSC[C@@H](C(=O)N[C@@H](C)C(N)=O)NC(=O)[C@H]([C@@H](C)O)NC(=O)[C@H](C(C)C)NC(=O)[C@H](CC2CCCCC2)NC(=O)[C@H](CCN)NC1=O` [Compound 2195] ({CH2CO}-N[4Pal]DWV[Bip]E[Orn][dL][Dab][Cha]VTCA-NH2; thioether N-14), for which the pIC50 is 7.64.

`CC(C)C[C@H]1NC(=O)[C@H](CCCN)NC(=O)[C@H](CCC(=O)O)NC(=O)[C@H](Cc2ccc(-c3ccccc3)cc2)NC(=O)[C@H](C(C)C)NC(=O)[C@H](Cc2c[nH]c3ccccc23)NC(=O)[C@H](CC(=O)O)NC(=O)[C@H](Cc2ccncc2)NC(=O)[C@H](Cc2ccccc2)NC(=O)CSC[C@@H](C(=O)N[C@@H](C)C(N)=O)NC(=O)[C@H]([C@@H](C)O)NC(=O)[C@H](C(C)C)NC(=O)[C@H](CC2CCCCC2)NC(=O)[C@H](CCN)NC1=O` [Compound 2196] ({CH2CO}-F[4Pal]DWV[Bip]E[Orn][dL][Dab][Cha]VTCA-NH2; thioether N-14): the negative logarithm of the IC50 (pIC50) was 7.94.

For the compound `CC(C)C[C@H]1NC(=O)[C@H](CCCN)NC(=O)[C@H](CCC(=O)O)NC(=O)[C@H](Cc2ccc(-c3ccccc3)cc2)NC(=O)[C@H](C(C)C)NC(=O)[C@H](Cc2c[nH]c3ccccc23)NC(=O)[C@H](CC(=O)O)NC(=O)[C@H](Cc2ccncc2)NC(=O)[C@H](Cc2ccncc2)NC(=O)CSC[C@@H](C(=O)N[C@@H](C)C(N)=O)NC(=O)[C@H]([C@@H](C)O)NC(=O)[C@H](C(C)C)NC(=O)[C@H](CC2CCCCC2)NC(=O)[C@H](CCN)NC1=O` [Compound 2197] ({CH2CO}-[4Pal][4Pal]DWV[Bip]E[Orn][dL][Dab][Cha]VTCA-NH2; thioether N-14), the negative logarithm of the IC50 (pIC50) was 8.09.

For `CC(C)C[C@H]1NC(=O)[C@H](CCCN)NC(=O)[C@H](CCC(=O)O)NC(=O)[C@H](Cc2ccc(-c3ccccc3)cc2)NC(=O)[C@H](C(C)C)NC(=O)[C@H](Cc2c[nH]c3ccccc23)NC(=O)[C@H](CCC(=O)O)NC(=O)[C@H](Cc2ccc(OCC(=O)O)cc2)NC(=O)[C@H](CN)NC(=O)CSC[C@@H](C(=O)N[C@@H](C)C(N)=O)NC(=O)[C@H]([C@@H](C)O)NC(=O)[C@H](C(C)C)NC(=O)[C@H](CC2CCCCC2)NC(=O)[C@H](CCN)NC1=O` [Compound 2198] ({CH2CO}-[Dap]Y(Carboxymethyl)EWV[Bip]E[Orn][dL][Dab][Cha]VTCA-NH2; thioether N-14), the pIC50 is 6.10.

On to `CC(C)C[C@H]1NC(=O)[C@H](CCCN)NC(=O)[C@H](CCC(=O)O)NC(=O)[C@H](Cc2ccc(-c3ccccc3)cc2)NC(=O)[C@H](C(C)C)NC(=O)[C@H](Cc2cccs2)NC(=O)[C@H](CC(=O)O)NC(=O)[C@H](Cc2ccncc2)NC(=O)[C@H](CC(N)=O)NC(=O)CSC[C@@H](C(=O)N[C@@H](C)C(N)=O)NC(=O)[C@H]([C@@H](C)O)NC(=O)[C@H](C(C)C)NC(=O)[C@H](CC2CCCCC2)NC(=O)[C@H](CCN)NC1=O` [Compound 2199] ({CH2CO}-N[4Pal]D[2Thi]V[Bip]E[Orn][dL][Dab][Cha]VTCA-NH2; thioether N-14), for which the pIC50 was 7.97.

Turning to `CC(C)C[C@H]1NC(=O)[C@H](CCCN)NC(=O)[C@H](CCC(=O)O)NC(=O)[C@H](Cc2ccc(-c3ccccc3)cc2)NC(=O)[C@H](C(C)C)NC(=O)[C@H](Cc2cccs2)NC(=O)[C@H](CC(=O)O)NC(=O)[C@H](Cc2ccncc2)NC(=O)[C@H](Cc2ccccc2)NC(=O)CSC[C@@H](C(=O)N[C@@H](C)C(N)=O)NC(=O)[C@H]([C@@H](C)O)NC(=O)[C@H](C(C)C)NC(=O)[C@H](CC2CCCCC2)NC(=O)[C@H](CCN)NC1=O` [Compound 2200] ({CH2CO}-F[4Pal]D[2Thi]V[Bip]E[Orn][dL][Dab][Cha]VTCA-NH2; thioether N-14), the pIC50 is 7.99.

As for `CC(C)C[C@H]1NC(=O)[C@H](CCCN)NC(=O)[C@H](CCC(=O)O)NC(=O)[C@H](Cc2ccc(-c3ccccc3)cc2)NC(=O)[C@H](C(C)C)NC(=O)[C@H](Cc2cccs2)NC(=O)[C@H](CC(=O)O)NC(=O)[C@H](Cc2ccncc2)NC(=O)[C@H](CN)NC(=O)CSC[C@@H](C(=O)N[C@@H](C)C(N)=O)NC(=O)[C@H]([C@@H](C)O)NC(=O)[C@H](C(C)C)NC(=O)[C@H](CC2CCCCC2)NC(=O)[C@H](CCN)NC1=O` [Compound 2201] ({CH2CO}-[Dap][4Pal]D[2Thi]V[Bip]E[Orn][dL][Dab][Cha]VTCA-NH2; thioether N-14), the pIC50 is 7.65.

For the compound `CC(C)C[C@H]1NC(=O)[C@H](CCCN)NC(=O)[C@H](CCC(=O)O)NC(=O)[C@H](Cc2ccc(-c3ccccc3)cc2)NC(=O)[C@H](C(C)C)NC(=O)[C@H](Cc2cccs2)NC(=O)[C@H](CC(=O)O)NC(=O)[C@H](Cc2ccncc2)NC(=O)[C@H](Cc2ccc(OCC(=O)O)cc2)NC(=O)CSC[C@@H](C(=O)N[C@@H](C)C(N)=O)NC(=O)[C@H]([C@@H](C)O)NC(=O)[C@H](C(C)C)NC(=O)[C@H](CC2CCCCC2)NC(=O)[C@H](CCN)NC1=O` [Compound 2202] ({CH2CO}-Y(Carboxymethyl)[4Pal]D[2Thi]V[Bip]E[Orn][dL][Dab][Cha]VTCA-NH2; thioether N-14), the pIC50 was 7.58.
